± gives the expanded uncertainty stated by the source.
Details: 313.15 K; Liquid; Closed cell (Static) method

| vapor or sublimation pressure | Structure (SMILES) |
| --- | --- |
| 2.506 ± 0.015 kPa | CCCCO [butan-1-ol] |
| 6.05 ± 0.02 kPa | CCC(C)O (centres undefined) [butan-2-ol] |
| 45 ± 0.092 kPa | C=CCCCC [hex-1-ene] |

| Structure (SMILES) | vapor or sublimation pressure |
| --- | --- |
| Cc1ccccc1 [toluene] | 7.876 ± 0.022 kPa |

Reference: the NIST ThermoML archive (doi:10.1016/j.fluid.2014.11.010)
